Data reported in the supplement of paper PMC10307832.

Columns and labels:
Test in all cases: relative viability (nuclei count vs DMSO), 5 days (fraction); higher = more cells survive
CUDC-101 + Vorinostat = compound: C#Cc1cccc(Nc2ncnc3cc(OC)c(OCCCCCCC(=O)NO)cc23)c1 [CUDC-101] + O=C(CCCCCCC(=O)Nc1ccccc1)NO [Vorinostat] (partner 1 µM)
Outline: (§1)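 Relative viability equals treated-well nuclei counts divided by vehicle-well nuclei counts. Counts came from 4× images of lung cancer cell lines grown in 1536-well plates for 5 days after pin-tool dosing on the day after seeding. Dosing used one drug alone or a fixed anchor-drug dose plus five library-drug doses (not always all listed) in √10 steps, and values are medians of duplicate plates.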

CUDC-101 + Palbociclib = compound: C#Cc1cccc(Nc2ncnc3cc(OC)c(OCCCCCCC(=O)NO)cc23)c1 [CUDC-101] + CC(=O)c1c(C)c2cnc(Nc3ccc(N4CCNCC4)cn3)nc2n(C2CCCC2)c1=O [Palbociclib] (partner 0.5 µM)
Outline: as §1

Vandetanib + OSI-027 = compound: COc1cc2/c(=N/c3ccc(Br)cc3F)nc[nH]c2cc1OCC1CCN(C)CC1 [Vandetanib] + COc1cccc2cc(-c3nc([C@H]4CC[C@H](C(=O)O)CC4)n4ncnc(N)c34)[nH]c12 [OSI-027] (partner 0.5 µM)
Outline: as §1

NVP-TAE684 + Olaparib = compound: COc1cc(N2CCC(N3CCN(C)CC3)CC2)ccc1Nc1ncc(Cl)c(Nc2ccccc2S(=O)(=O)C(C)C)n1 [NVP-TAE684] + O=C(c1cc(Cc2n[nH]c(=O)c3ccccc23)ccc1F)N1CCN(C(=O)C2CC2)CC1 [Olaparib] (partner 8 µM)
Outline: as §1

| Cell Line | relative viability (CUDC-101 + Vorinostat; first compound 0.01 µM) | relative viability (CUDC-101 + Vorinostat; first compound 0.03162 µM) | relative viability (CUDC-101 + Vorinostat; first compound 0.1 µM) | relative viability (CUDC-101 + Vorinostat; first compound 0.3162 µM) | relative viability (CUDC-101 + Vorinostat; first compound 1 µM) | relative viability (CUDC-101 + Palbociclib; first compound 0.01 µM) | relative viability (CUDC-101 + Palbociclib; first compound 0.03162 µM) | relative viability (CUDC-101 + Palbociclib; first compound 0.1 µM) | relative viability (CUDC-101 + Palbociclib; first compound 0.3162 µM) | relative viability (CUDC-101 + Palbociclib; first compound 1 µM) | relative viability (Vandetanib + OSI-027; first compound 0.02 µM) | relative viability (Vandetanib + OSI-027; first compound 0.06325 µM) | relative viability (Vandetanib + OSI-027; first compound 0.2 µM) | relative viability (Vandetanib + OSI-027; first compound 0.6325 µM) | relative viability (Vandetanib + OSI-027; first compound 2 µM) | relative viability (NVP-TAE684 + Olaparib; first compound 0.2 µM) | relative viability (NVP-TAE684 + Olaparib; first compound 0.6325 µM) | relative viability (NVP-TAE684 + Olaparib; first compound 2 µM) |
| --- | --- | --- | --- | --- | --- | --- | --- | --- | --- | --- | --- | --- | --- | --- | --- | --- | --- | --- |
| NCI-H1666 | 1.1 | 1.01 | 0.951 | 1.06 | 1.06 | 0.64 | 0.661 | 0.661 | 0.599 | 0.664 | 0.858 | 0.765 | 0.836 | 0.788 | 0.751 | 0.734 | 0.772 | 0.736 |
| A-427 | 0.862 | 0.81 | 0.854 | 0.817 | 0.433 | 0.562 | 0.538 | 0.501 | 0.496 | 0.487 | 0.542 | 0.486 | 0.53 | 0.481 | 0.432 | 0.814 | 0.674 | 0.631 |
| NCI-H2170 | 0.809 | 0.821 | 0.77 | 0.859 | 0.549 | 0.419 | 0.402 | 0.385 | 0.37 | 0.361 | 0.641 | 0.673 | 0.727 | 0.655 | 0.811 | 0.583 | 0.58 | 0.518 |
| NCI-H1395 | 0.81 | 0.753 | 0.797 | 0.661 | 0.489 | 0.599 | 0.632 | 0.595 | 0.725 | 0.578 | 0.614 | 0.65 | 0.665 | 0.526 | 0.588 | 0.463 | 0.422 | 0.384 |
